Assay results as given in ChEMBL document CHEMBL3414518, “Development of selective DprE1 inhibitors: Design, synthesis, crystal structure and antitubercular activity of benzothiazolylpyrimidine-5-carboxamides” (Eur J Med Chem, 2015).
In brackets after ≈: the same amount, converted by molar mass.

Experiments:
[1] = test system: Mycobacterium tuberculosis; experiment: Antitubercular activity against Mycobacterium tuberculosis H37Rv ATCC 27294 after 5 days by broth microdilution method; format: functional; settings: H37Rv ATCC 27294, 120 h
[2] = Cmax in Sprague-Dawley rat at 20 mg/kg, po; format: ADME, organism-based; design: dose 20 mg/kg, route oral; settings: in vivo
[3] = AUC (0 to infinity) in Sprague-Dawley rat at 20 mg/kg, po; format: ADME, organism-based; design: time infinity, dose 20 mg/kg, route oral; settings: plasma
[4] = Inhibition of Mycobacterium tuberculosis DprE1 using beta-D-ribofuranose as substrate after 7 mins by UV-Visible spectroscopy
[5] = Oral bioavailability in Sprague-Dawley rat at 20 mg/kg; format: ADME, organism-based; settings: in vivo
[6] = Cmax in Sprague-Dawley rat at 10 mg/kg, iv; format: ADME, organism-based; design: dose 10 mg/kg, route intravenous; settings: in vivo
[7] = Elimination half life in Sprague-Dawley rat at 20 mg/kg, po; format: ADME, organism-based; design: dose 20 mg/kg, route oral; settings: in vivo, read-out: beta t1/2 (converted)
[8] = Tmax in Sprague-Dawley rat at 20 mg/kg, po; format: ADME, organism-based; design: dose 20 mg/kg, route oral; settings: in vivo
[9] = Elimination half life in Sprague-Dawley rat at 10 mg/kg, iv; format: ADME, organism-based; design: dose 10 mg/kg, route intravenous; settings: in vivo, read-out: beta t1/2 (converted)
[10] = Partition coefficient, log P of the compound in PBS at 10 mM at pH 7.4 after 5 hrs by shake flask method; format: physicochemical
[11] = AUC (0 to infinity) in Sprague-Dawley rat at 10 mg/kg, iv; format: ADME, organism-based; design: time infinity, dose 10 mg/kg, route intravenous; settings: plasma

SMILES: CC1=C(C(=O)Nc2nc3ccccc3s2)C(c2ccc([N+](=O)[O-])cc2)NC(=S)N1 (stereo not given)
- MIC [1]: 1.2 µM (≈ 0.511 µg/mL)

SMILES: CC1=C(C(=O)Nc2nc3ccccc3s2)C(c2ccc(Cl)cc2)NC(=S)N1 (stereo not given)
- MIC [1]: 0.32 µM (≈ 0.133 µg/mL)

SMILES: CC1=C(C(=O)Nc2nc3ccccc3s2)C(c2ccccc2O)NC(=S)N1 (stereo not given)
- MIC [1]: 2.4 µM (≈ 0.952 µg/mL)

SMILES: CC1=C(C(=O)Nc2nc3ccccc3s2)C(c2ccc(F)cc2)NC(=S)N1 (stereo not given)
- Cmax [2]: 340 ng/mL
- AUC(0-inf) [3]: 810 ng·h/mL
- MIC [1]: 0.09 µM (≈ 0.0359 µg/mL)
- IC50 [4]: 9.2 µM
- bioavailability [5]: 51.9%
- Cmax [6]: 1500 ng/mL
- half-life [7]: 5.8 h
- Tmax [8]: 0.6 h
- half-life [9]: 2.8 h
- logD at 5 h [10]: 2.18
- AUC(0-inf) [11]: 1530 ng·h/mL

SMILES: COc1ccc(C2NC(=S)NC(C)=C2C(=O)Nc2nc3ccccc3s2)cc1 (stereo not given)
- MIC [1]: 0.5 µM (≈ 0.205 µg/mL)

SMILES: CC1=C(C(=O)Nc2nc3ccccc3s2)C(c2ccccc2Cl)NC(=S)N1 (stereo not given)
- MIC [1]: 0.32 µM (≈ 0.133 µg/mL)

SMILES: COC(=O)c1ccc(C2NC(=S)NC(C)=C2C(=O)Nc2nc3ccccc3s2)cc1 (stereo not given)
- MIC [1]: 3.1 µM (≈ 1.36 µg/mL)

SMILES: CC1=C(C(=O)Nc2nc3ccccc3s2)C(c2ccccc2)NC(=S)N1 (stereo not given)
- Cmax [2]: 590 ng/mL
- AUC(0-inf) [3]: 790 ng·h/mL
- MIC [1]: 0.08 µM (≈ 0.0304 µg/mL)
- IC50 [4]: 7.7 µM
- bioavailability [5]: 52.7%
- Cmax [6]: 1800 ng/mL
- half-life [7]: 5.5 h
- Tmax [8]: 0.5 h
- half-life [9]: 2.6 h
- logD at 5 h [10]: 2.03
- AUC(0-inf) [11]: 1500 ng·h/mL

SMILES: CC1=C(C(=O)Nc2nc3ccccc3s2)C(c2ccc(C(F)(F)F)cc2)NC(=S)N1 (stereo not given)
- Cmax [2]: 490 ng/mL
- AUC(0-inf) [3]: 830 ng·h/mL
- MIC [1]: 0.09 µM (≈ 0.0404 µg/mL)
- IC50 [4]: 11.1 µM
- bioavailability [5]: 50.6%
- Cmax [6]: 1730 ng/mL
- half-life [7]: 6 h
- Tmax [8]: 0.6 h
- half-life [9]: 2.6 h
- logD at 5 h [10]: 2.92
- AUC(0-inf) [11]: 1640 ng·h/mL

SMILES: CC1=C(C(=O)Nc2nc3ccccc3s2)C(c2ccc(O)cc2)NC(=S)N1 (stereo not given)
- MIC [1]: 2.4 µM (≈ 0.952 µg/mL)

SMILES: COc1ccccc1C1NC(=S)NC(C)=C1C(=O)Nc1nc2ccccc2s1 (stereo not given)
- MIC [1]: 0.5 µM (≈ 0.205 µg/mL)

SMILES: NNC(=O)c1ccncc1 [ISONIAZID]
- MIC [1]: 0.2 µM (≈ 0.0274 µg/mL)

SMILES: COc1ccc(C2NC(=S)NC(C)=C2C(=O)Nc2nc3ccccc3s2)cc1O (stereo not given)
- MIC [1]: 1.2 µM (≈ 0.512 µg/mL)

SMILES: CC1=C(C(=O)Nc2nc3ccccc3s2)C(c2ccc(Br)cc2)NC(=S)N1 (stereo not given)
- MIC [1]: 0.4 µM (≈ 0.184 µg/mL)

SMILES: CC1=C(C(=O)Nc2nc3ccccc3s2)C(c2cccc([N+](=O)[O-])c2)NC(=S)N1 (stereo not given)
- MIC [1]: 1.3 µM (≈ 0.553 µg/mL)

SMILES: COc1cc(C2NC(=S)NC(C)=C2C(=O)Nc2nc3ccccc3s2)cc(OC)c1O (stereo not given)
- MIC [1]: 1.2 µM (≈ 0.548 µg/mL)

SMILES: CC1=C(C(=O)Nc2nc3ccccc3s2)C(c2ccccc2[N+](=O)[O-])NC(=S)N1 (stereo not given)
- MIC [1]: 1.2 µM (≈ 0.511 µg/mL)

SMILES: CC1=C(C(=O)Nc2nc3ccccc3s2)C(c2ccc(N(C)C)cc2)NC(=S)N1 (stereo not given)
- Cmax [2]: 410 ng/mL
- AUC(0-inf) [3]: 780 ng·h/mL
- MIC [1]: 0.08 µM (≈ 0.0339 µg/mL)
- IC50 [4]: 10.3 µM
- bioavailability [5]: 52.7%
- Cmax [6]: 1620 ng/mL
- half-life [7]: 1.4 h
- Tmax [8]: 0.5 h
- half-life [9]: 2.5 h
- logD at 5 h [10]: 2.22
- AUC(0-inf) [11]: 1480 ng·h/mL

SMILES: CC1=C(C(=O)Nc2nc3ccccc3s2)C(c2ccc(Cl)cc2Cl)NC(=S)N1 (stereo not given)
- MIC [1]: 0.25 µM (≈ 0.112 µg/mL)

SMILES: COc1cccc(C2NC(=S)NC(C)=C2C(=O)Nc2nc3ccccc3s2)c1O (stereo not given)
- MIC [1]: 1.4 µM (≈ 0.597 µg/mL)
